According to patent US4443436A, “C-20-Modified macrolide derivatives of the macrolide antibiotics tylosin, desmycosin, macrocin, and lactenocin” (Eli Lilly and Company, priority 1982, dated 1984):
In brackets after ≈: the same amount, converted by molar mass.

Columns and labels:
[1] = test system: Staphylococcus aureus V41; assay: MIC, standard agar-dilution assay, Staphylococcus aureus V41; format: cell-based; settings: Staphylococcus aureus V41; penicillin-resistant strain; agar dilution
[2] = test system: Streptococcus pyogenes C203; assay: MIC, standard agar-dilution assay, Streptococcus pyogenes C203; format: cell-based; settings: Streptococcus pyogenes C203; agar dilution
[3] = test system: Mycoplasma gallisepticum; assay: MIC, broth-dilution microtiter test, Mycoplasma gallisepticum; format: cell-based; settings: Mycoplasma gallisepticum; broth-dilution microtiter
Source text: (§1) The MIC's in Table X were obtained using conventional broth-dilution microtiter tests.

[4] = test system: Staphylococcus aureus; assay: MIC, broth-dilution microtiter test, Staphylococcus aureus; format: cell-based; settings: broth-dilution microtiter
Source text: as §1

[5] = test system: Mycoplasma synoviae; assay: MIC, broth-dilution microtiter test, Mycoplasma synoviae; format: cell-based; settings: Mycoplasma synoviae; broth-dilution microtiter
Source text: as §1

[6] = test system: Streptococcus pneumoniae Park I; assay: microbe, parasite or virus in culture; format: cell-based; settings: Streptococcus pneumoniae Park I; agar dilution
[7] = test system: Haemophilus influenzae Holt; assay: MIC, standard agar-dilution assay, Haemophilus influenzae Holt; format: cell-based; settings: Haemophilus influenzae Holt; ampicillin-sensitive strain; agar dilution
[8] = test system: Staphylococcus aureus X1.1; assay: MIC, standard agar-dilution assay, Staphylococcus aureus X1.1; format: cell-based; settings: Staphylococcus aureus X1.1; agar dilution
[9] = test system: Pasteurella multocida; assay: Oral (gavage) treatment of Pasteurella multocida-infected chicks; format: in vivo, one-day-old chicks
Procedure, shortened: (§2)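 Dosing either by gavage at 1 and 5 h after infection, or subcutaneously at 30 mg/kg at 1 and 4 h after infection. Birds were day-old chicks infected s.c. with 0.1 ml of avian Pasteurella multocida culture (twenty-hour tryptose broth, diluted 10^-4).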

[10] = test system: Streptococcus Group 9960; assay: MIC, standard agar-dilution assay, Streptococcus Group 9960; format: cell-based; settings: Streptococcus Group 9960; agar dilution
[11] = test system: Pasteurella multocida 17E; assay: MIC, broth-dilution microtiter test, Pasteurella multocida 17E; format: cell-based; settings: Pasteurella multocida 17E; bovine isolate; broth-dilution microtiter
Source text: as §1

[12] = test system: Streptococcus pyogenes C203; assay: In vivo protection of mice experimentally infected with S. pyogenes C203; settings: mice, doses given 1 and 4 hours post-infection
Method: The C-20 modified derivatives of this invention have shown in vivo antimicrobial activity against experimentally-induced infections in laboratory animals. When two doses of test compound were administered to mice experimentally infected with S. pyogenes C203, the activity observed was measured as an ED50 value [effective dose in mg/kg to protect 50% of the test animals: see Warren Wick, et al., J. Bacteriol. 81, 233-235 (1961)].

[13] = test system: Mycoplasma hyopneumoniae; assay: MIC, broth-dilution microtiter test, Mycoplasma hyopneumoniae; format: cell-based; settings: Mycoplasma hyopneumoniae; broth-dilution microtiter
Source text: as §1

[14] = test system: Streptococcus Group D X66; assay: MIC, standard agar-dilution assay, Streptococcus Group D X66; format: cell-based; settings: Streptococcus Group D X66; agar dilution
[15] = test system: Mycoplasma hyorhinis; assay: MIC, broth-dilution microtiter test, Mycoplasma hyorhinis; format: cell-based; settings: Mycoplasma hyorhinis; broth-dilution microtiter
Source text: as §1

[16] = test system: Haemophilus influenzae R252; assay: MIC, standard agar-dilution assay, Haemophilus influenzae R252; format: cell-based; settings: Haemophilus influenzae R252; ampicillin-resistant strain; agar dilution
[17] = test system: Staphylococcus epidermidis EPI1; assay: MIC, standard agar-dilution assay, Staphylococcus epidermidis EPI1; format: cell-based; settings: Staphylococcus epidermidis EPI1; agar dilution
[18] = test system: Staphylococcus aureus S13E; assay: MIC, standard agar-dilution assay, Staphylococcus aureus S13E; format: cell-based; settings: Staphylococcus aureus S13E; agar dilution
[19] = test system: Pasteurella multocida 60A; assay: MIC, broth-dilution microtiter test, Pasteurella multocida 60A; format: cell-based; settings: Pasteurella multocida 60A; avian isolate; broth-dilution microtiter
Source text: as §1

[20] = Plasma level after oral administration to dogs; settings: female mongrel dogs; single 15 mg/kg oral dose
[21] = test system: Pasteurella multocida; assay: Subcutaneous treatment of Pasteurella multocida-infected chicks; format: in vivo, one-day-old chicks; settings: 30 mg/kg × 2, 1 and 4 hours post-challenge
Procedure, shortened: as §2

[22] = test system: Mycoplasma gallisepticum; assay: Antimycoplasmal activity in chicks infected with Mycoplasma gallisepticum; format: in vivo, two- to three-day-old chicks; settings: gavage five times, equivalent to 0.5 g/gal
Method: In these tests infections were induced in chicks by injecting 0.2 ml of a broth culture of M. gallisepticum into the abdominal air sac of two- to three-day-old chicks. The compounds were administered by gavage five times at a dose equivalent to 0.5 g/gal (on the day of challenge once prior to and once following the challenge, two times on the next day and once on the third day). Twenty-one days post-infection, the chicks were weighed, a blood sample was taken, and the chicks were sacrificed. The presence or absence of air-sac lesions was recorded.

[23] = test system: Staphylococcus aureus X400; assay: MIC, standard agar-dilution assay, Staphylococcus aureus X400; format: cell-based; settings: Staphylococcus aureus X400; methicillin-resistant strain; agar dilution
[24] = test system: Streptococcus bovis 80; assay: MIC, broth-dilution microtiter test, Streptococcus bovis 80; format: cell-based; settings: Streptococcus bovis 80; broth-dilution microtiter
Source text: as §1

[25] = test system: Staphylococcus epidermidis EPI2; assay: MIC, standard agar-dilution assay, Staphylococcus epidermidis EPI2; format: cell-based; settings: Staphylococcus epidermidis EPI2; agar dilution
[26] = test system: Pasteurella hemolytica 22C; assay: MIC, broth-dilution microtiter test, Pasteurella hemolytica 22C; format: cell-based; settings: Pasteurella hemolytica 22C; broth-dilution microtiter
Source text: as §1

CC[C@H]1OC(=O)C[C@@H](O)[C@H](C)[C@@H](O[C@@H]2O[C@H](C)[C@H](O)[C@H](N(C)C)[C@H]2O)[C@@H](CCOc2ccccc2)C[C@@H](C)C(=O)/C=C/C(C)=C/[C@@H]1COC1O[C@H](C)[C@@H](O)[C@@H](OC)[C@H]1OC (stereo partly shown) [Compound 33, 20-DH-20-O-Phenyldesmycosin]
MIC [1]: 0.25 µg/mL (≈ 0.294 µM) | MIC [2]: 2 µg/mL (≈ 2.35 µM) | MIC [3]: 0.39 µg/mL (≈ 0.459 µM) | MIC [4]: 0.39 µg/mL (≈ 0.459 µM) | MIC [5]: 1.56 µg/mL (≈ 1.84 µM) | MIC [6]: 2 µg/mL (≈ 2.35 µM) | MIC [7]: 32 µg/mL (≈ 37.6 µM) | MIC [8]: 0.25 µg/mL (≈ 0.294 µM) | Number of Deaths/Number tested ([9]; 1.0 g/gal equivalent): 9/9 | Number of Deaths/Number tested ([9]; 2.0 g/gal equivalent): 3/9 | Number of Deaths/Number tested ([9]; 2.0 g/gal equivalent, 13/20 infected nonmedicated chicks died in this test): 7/10 | MIC [10]: 16 µg/mL (≈ 18.8 µM) | MIC [11]: 12.5 µg/mL (≈ 14.7 µM) | ED50, Oral ([12]; oral): 9 mg/kg × 2 | ED50, Subcutaneous ([12]; subcutaneous): 1.5 mg/kg × 2 | MIC [13]: 25 µg/mL (≈ 29.4 µM) | MIC [14]: 8 µg/mL (≈ 9.41 µM) | MIC [15]: 25 µg/mL (≈ 29.4 µM) | MIC [16]: 32 µg/mL (≈ 37.6 µM) | MIC [17]: 0.25 µg/mL (≈ 0.294 µM) | MIC [18]: 0.25 µg/mL (≈ 0.294 µM) | MIC [19]: 12.5 µg/mL (≈ 14.7 µM) | peak plasma level [20]: 2.1 µg/mL | Number of Deaths/Number Treated [21]: 10/10 | Number with Antibodies/Number Tested ([22]; antibodies to M. gallisepticum, 21 days post-infection): 10/10 | Mortality [22]: 0/10 | Number with Air-Sac Lesions/Number Treated ([22]; 21 days post-infection): 2/10 | MIC [23]: 0.25 µg/mL (≈ 0.294 µM) | MIC [24]: 6.25 µg/mL (≈ 7.35 µM) | MIC [25]: 0.12 µg/mL (≈ 0.141 µM) | MIC [26]: 25 µg/mL (≈ 29.4 µM)
